In PubChem BioAssay (NCI):
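Five concentrations, 48 hours, 96-well plates. Here, GI50 denotes the concentration required for 50% inhibition of growth. At the TGI there is no net growth.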

Columns and labels:
Assay in all cases: NCI tumour cell line growth inhibition, 48 h
SNB-78 CNS = system: SNB-78 CNS
XF 498 CNS = system: XF 498 CNS
HOP-18 NSCLC = system: HOP-18 NSCLC
M19-MEL melanoma = system: M19-MEL melanoma
DMS 273 small cell lung = system: DMS 273 small cell lung
DLD-1 colon = system: DLD-1 colon
DMS 114 small cell lung = system: DMS 114 small cell lung
KM20L2 colon = system: KM20L2 colon
LXFL 529 NSCLC = system: LXFL 529 NSCLC
CAKI-1 renal = system: CAKI-1 renal
RXF-631 renal = system: RXF-631 renal
SN12K1 renal = system: SN12K1 renal
P388 leukemia = system: P388 leukemia
P388/ADR leukemia = system: P388/ADR leukemia

Q: Which TGI (SNB-78 CNS) does the source give for CN1C(=O)N(c2nc3ccccc3[nH]2)C(C)(C)C1=O here?
A: Its TGI is over 100 µM.

Q: What about the TGI (XF 498 CNS) of the same molecule?
A: The TGI was over 100 µM.

Q: And the TGI (HOP-18 NSCLC)?
A: Its TGI is over 100 µM.

Q: And the TGI (M19-MEL melanoma)?
A: The TGI was over 100 µM.

Q: And the TGI (DMS 273 small cell lung)?
A: The TGI was over 100 µM.

Q: And the TGI (DLD-1 colon)?
A: The TGI was over 100 µM.

Q: What about the TGI (DMS 114 small cell lung) of the same molecule?
A: The TGI was over 100 µM.

Q: What about the TGI (KM20L2 colon) of the same molecule?
A: Its TGI is over 100 µM.

Q: What about the TGI (LXFL 529 NSCLC) of the same molecule?
A: Its TGI is over 100 µM.

Q: Which TGI (CAKI-1 renal) does the source give for CCOC(=O)CCc1ccc(NC(=O)/C=C/c2ccc([N+](=O)[O-])o2)cc1 here?
A: The TGI was 6.54 µM.

Q: With COC1(OC)C2C=CC1C([C@](C)(N)CO)C2 (stereo partly drawn) as the molecule, how does the TGI (CAKI-1 renal) read?
A: Its TGI is over 100 µM.

Q: With Oc1cccc2ccc(Br)nc12 as the molecule, how does the TGI (CAKI-1 renal) read?
A: Its TGI is over 100 µM.

Q: With COC(=O)[C@H](C)N(C)C(=O)[C@H](C)N1[C@@H](c2ccccc2)COC1(C)C as the molecule, how does the TGI (CAKI-1 renal) read?
A: Its TGI is over 100 µM.

Q: How did the TGI (CAKI-1 renal) turn out when CC(=O)c1cccc(Nc2nc3ccccc3c3[nH]c4ccccc4c23)c1 was run?
A: Its TGI is 23.4 µM.

Q: How did the TGI (SNB-78 CNS) turn out when CC1OC(CC2C=CCc3c(O)c4c(c(O)c32)C(=O)c2ccccc2C4=O)CC(NC(=O)C(F)(F)F)C1O (stereo not drawn) was run?
A: Its TGI is 14.9 µM.

Q: And the TGI (XF 498 CNS)?
A: Its TGI is 14.6 µM.

Q: And the TGI (CAKI-1 renal)?
A: Its TGI is 20.7 µM.

Q: And the TGI (M19-MEL melanoma)?
A: Its TGI is 21.1 µM.

Q: What about the TGI (DMS 273 small cell lung) of the same molecule?
A: Its TGI is 19.7 µM.

Q: What about the TGI (DLD-1 colon) of the same molecule?
A: Its TGI is 20 µM.

Q: What about the TGI (DMS 114 small cell lung) of the same molecule?
A: The TGI was 26.8 µM.

Q: And the TGI (KM20L2 colon)?
A: The TGI was 55.3 µM.

Q: What about the TGI (LXFL 529 NSCLC) of the same molecule?
A: The TGI was 20.4 µM.

Q: How did the TGI (CAKI-1 renal) turn out when CC12CCC(=O)[C@@]1(C)CCCC2O (stereo partly drawn) was run?
A: Its TGI is over 100 µM.

Q: For COc1ccc(NC(/C(C(=O)C(=O)/C=C(\O)c2ccccc2)=C(\O)c2ccccc2)c2ccc(OC)cc2)cc1 (stereo not drawn), which TGI (CAKI-1 renal) is on record?
A: Its TGI is over 100 µM.

Q: With N#CC(C#N)=Cn1c(=S)[nH]c2ccc([N+](=O)[O-])cc21 as the molecule, how does the TGI (CAKI-1 renal) read?
A: The TGI was over 100 µM.

Q: With COC(=O)C(C#N)C1NC(=O)c2ccccc21 (stereo not drawn) as the molecule, how does the TGI (SNB-78 CNS) read?
A: Its TGI is over 100 µM.

Q: And the TGI (HOP-18 NSCLC)?
A: Its TGI is over 100 µM.

Q: What about the TGI (M19-MEL melanoma) of the same molecule?
A: Its TGI is over 100 µM.

Q: And the TGI (DMS 273 small cell lung)?
A: Its TGI is over 100 µM.

Q: What about the TGI (DLD-1 colon) of the same molecule?
A: The TGI was over 100 µM.

Q: And the TGI (DMS 114 small cell lung)?
A: The TGI was over 100 µM.

Q: And the TGI (KM20L2 colon)?
A: The TGI was over 100 µM.

Q: What about the TGI (RXF-631 renal) of the same molecule?
A: The TGI was over 100 µM.

Q: With O=c1c2ccccc2nc(N/N=C/c2ccc(Cl)cc2)n1-c1ccccc1 as the molecule, how does the TGI (CAKI-1 renal) read?
A: The TGI was over 100 µM.

Q: Which TGI (CAKI-1 renal) does the source give for CC1=NNC(=O)C1C1C=C(c2c[nH]c3ccccc23)OC1=O (stereo not drawn) here?
A: Its TGI is over 100 µM.

Q: With COC(=O)/C(C#N)=C/c1cc(C(C)(C)C)c(O)c(C(C)(C)C)c1 as the molecule, how does the TGI (CAKI-1 renal) read?
A: Its TGI is over 27.4 µM.

Q: For CCCCCCCCCCCCCCCCCCOCC(O)CO (stereo not drawn), which TGI (SNB-78 CNS) is on record?
A: The TGI was over 25 µM.

Q: And the TGI (SN12K1 renal)?
A: Its TGI is over 25 µM.

Q: What about the TGI (P388 leukemia) of the same molecule?
A: The TGI was over 14.1 µM.

Q: And the TGI (XF 498 CNS)?
A: Its TGI is over 25 µM.

Q: And the TGI (CAKI-1 renal)?
A: The TGI was over 5.39 µM.

Q: And the TGI (HOP-18 NSCLC)?
A: Its TGI is over 2.5 µM.

Q: And the TGI (M19-MEL melanoma)?
A: Its TGI is 24.6 µM.

Q: And the TGI (DMS 273 small cell lung)?
A: The TGI was over 7.73 µM.

Q: And the TGI (DLD-1 colon)?
A: Its TGI is over 25 µM.

Q: And the TGI (DMS 114 small cell lung)?
A: Its TGI is over 25 µM.

Q: And the TGI (KM20L2 colon)?
A: The TGI was over 25 µM.

Q: What about the TGI (P388/ADR leukemia) of the same molecule?
A: The TGI was over 25 µM.

Q: With Clc1ccc(N2N=C(c3cccc(Nc4ccncc4)c3)CC2c2ccc(Br)cc2)cc1 (stereo not drawn) as the molecule, how does the GI50 (CAKI-1 renal) read?
A: The GI50 was 1.52 µM.

Q: What about the TGI (CAKI-1 renal) of the same molecule?
A: The TGI was 2.9 µM.

Q: How did the TGI (CAKI-1 renal) turn out when Cc1ccc(CN2CCN(Cc3ccc(C)o3)C(C)C2)o1 (stereo not drawn) was run?
A: Its TGI is over 100 µM.

Q: For CC(C)(C)OC(=O)C1/C(=C/CBr)CN1C(=O)OC(C)(C)C (stereo not drawn), which TGI (CAKI-1 renal) is on record?
A: The TGI was 30.5 µM.

Q: O=Cc1ccc(-c2ccc(S(=O)(=O)O)cc2)o1 was tested. Which TGI (CAKI-1 renal) did it give?
A: The TGI was over 100 µM.

Q: How did the TGI (CAKI-1 renal) turn out when C1=Cc2cccc3occ(c23)C=C1 was run?
A: The TGI was over 100 µM.

Q: With CCOC(=O)c1ccc(N(CCOS(=O)(=O)c2ccc(C)cc2)CCOS(=O)(=O)c2ccc(C)cc2)cc1 as the molecule, how does the TGI (CAKI-1 renal) read?
A: The TGI was over 100 µM.

Q: How did the TGI (CAKI-1 renal) turn out when Cc1ccc(O)c(C2=NNC(c3cccc(Cl)c3)C2)c1 (stereo not drawn) was run?
A: Its TGI is over 100 µM.

Q: Which TGI (XF 498 CNS) does the source give for C/C(=C\CC/C=C(\C)CC/C=C(\C)CCC1SC1(C)C)CC/C=C(\C)CCC1OC1(C)C (stereo not drawn) here?
A: Its TGI is over 100 µM.

Q: What about the TGI (CAKI-1 renal) of the same molecule?
A: Its TGI is over 100 µM.

Q: What about the TGI (HOP-18 NSCLC) of the same molecule?
A: The TGI was over 100 µM.

Q: And the TGI (M19-MEL melanoma)?
A: Its TGI is over 100 µM.

Q: What about the TGI (DMS 273 small cell lung) of the same molecule?
A: Its TGI is over 100 µM.

Q: What about the TGI (DLD-1 colon) of the same molecule?
A: The TGI was over 100 µM.

Q: What about the TGI (DMS 114 small cell lung) of the same molecule?
A: Its TGI is over 100 µM.

Q: What about the TGI (KM20L2 colon) of the same molecule?
A: The TGI was over 100 µM.

Q: What about the TGI (LXFL 529 NSCLC) of the same molecule?
A: The TGI was over 100 µM.

Q: Which TGI (SNB-78 CNS) does the source give for CC(=O)OCC1OC(n2c(O)c(N=NC(N)=S)c3ccc([N+](=O)[O-])cc32)C(OC(C)=O)C1OC(C)=O (stereo not drawn) here?
A: The TGI was over 100 µM.

Q: What about the TGI (XF 498 CNS) of the same molecule?
A: Its TGI is 94.7 µM.

Q: And the TGI (CAKI-1 renal)?
A: The TGI was over 100 µM.

Q: What about the TGI (HOP-18 NSCLC) of the same molecule?
A: The TGI was over 100 µM.

Q: What about the TGI (M19-MEL melanoma) of the same molecule?
A: The TGI was 38.3 µM.

Q: And the TGI (DMS 273 small cell lung)?
A: The TGI was 57.5 µM.

Q: What about the TGI (DLD-1 colon) of the same molecule?
A: Its TGI is over 100 µM.

Q: What about the TGI (DMS 114 small cell lung) of the same molecule?
A: Its TGI is 61.9 µM.

Q: What about the TGI (KM20L2 colon) of the same molecule?
A: Its TGI is over 100 µM.

Q: What about the TGI (LXFL 529 NSCLC) of the same molecule?
A: Its TGI is over 100 µM.

Q: With O=C(NC(CCCCN1C(=O)c2ccccc2C1=O)P(=O)(Oc1ccccc1)Oc1ccccc1)OCc1ccccc1 (stereo not drawn) as the molecule, how does the TGI (CAKI-1 renal) read?
A: The TGI was over 100 µM.

Q: O=C(O)CCC(NC(=O)c1ccc(Oc2nc3ccccc3nc2-c2ccccc2)cc1)C(=O)O (stereo not drawn) was tested. Which TGI (CAKI-1 renal) did it give?
A: Its TGI is over 100 µM.

Q: How did the TGI (CAKI-1 renal) turn out when Oc1ccc(/C=N/c2nccs2)c(O)c1 was run?
A: Its TGI is over 100 µM.

Q: How did the TGI (CAKI-1 renal) turn out when Nn1c(CCCCCCCCc2n[nH]c(=S)n2N)n[nH]c1=S was run?
A: The TGI was over 100 µM.

Q: COc1cc([C@@H]2c3cc4c(cc3[C@@H](NC(=O)NO)[C@H]3COC(=O)[C@H]23)OCO4)cc(OC)c1O was tested. Which TGI (CAKI-1 renal) did it give?
A: The TGI was over 100 µM.

Q: CCOC(OC1=C(C#N)CCCC1)C(CC)[Se]c1ccccc1[N+](=O)[O-] (stereo not drawn) was tested. Which TGI (SNB-78 CNS) did it give?
A: The TGI was over 100 µM.

Q: What about the TGI (XF 498 CNS) of the same molecule?
A: Its TGI is 61.5 µM.

Q: What about the TGI (CAKI-1 renal) of the same molecule?
A: The TGI was over 100 µM.

Q: And the TGI (HOP-18 NSCLC)?
A: Its TGI is 74.1 µM.

Q: And the TGI (M19-MEL melanoma)?
A: Its TGI is 37.2 µM.

Q: What about the TGI (DMS 273 small cell lung) of the same molecule?
A: Its TGI is 36.2 µM.

Q: What about the TGI (DLD-1 colon) of the same molecule?
A: Its TGI is 35.6 µM.

Q: What about the TGI (DMS 114 small cell lung) of the same molecule?
A: The TGI was 30.1 µM.

Q: And the TGI (KM20L2 colon)?
A: The TGI was 31.4 µM.

Q: What about the TGI (LXFL 529 NSCLC) of the same molecule?
A: Its TGI is 89.2 µM.

Q: How did the TGI (CAKI-1 renal) turn out when CC(=O)N1N=C(c2ccc3ccccc3c2O)CC1c1ccc(N(C)C)cc1 (stereo not drawn) was run?
A: Its TGI is over 100 µM.

Q: For Cc1cnc2[nH]c(-c3ccc(Cl)cc3)cc(=O)c2c1, which TGI (CAKI-1 renal) is on record?
A: The TGI was over 55.6 µM.
